For two molecules, IC50 results are on record in PMC8672067, “Inhibitors of the Bub1 spindle assembly checkpoint kinase: synthesis of BAY-320 and comparison with 2OH-BNPP1” (Royal Society Open Science, 2021).

SMILES strings stand for the structures.

The assay has as its target T1, Bub1 (Homo sapiens, UniProt O43683).
T1 construct: full-length Bub1 with an N-terminal GFP tag (GFP-Bub1), purified from HEK-293 cells on beads
Put plainly: in vitro kinase assay with purified GFP-Bub1 and H2A, H2ApT120 immunoblot, […] ATP. The class given is biochemical. On the technique in general: A western blot detects proteins with antibodies after separation by electrophoresis.

T1 sequence (O43683 whole entry): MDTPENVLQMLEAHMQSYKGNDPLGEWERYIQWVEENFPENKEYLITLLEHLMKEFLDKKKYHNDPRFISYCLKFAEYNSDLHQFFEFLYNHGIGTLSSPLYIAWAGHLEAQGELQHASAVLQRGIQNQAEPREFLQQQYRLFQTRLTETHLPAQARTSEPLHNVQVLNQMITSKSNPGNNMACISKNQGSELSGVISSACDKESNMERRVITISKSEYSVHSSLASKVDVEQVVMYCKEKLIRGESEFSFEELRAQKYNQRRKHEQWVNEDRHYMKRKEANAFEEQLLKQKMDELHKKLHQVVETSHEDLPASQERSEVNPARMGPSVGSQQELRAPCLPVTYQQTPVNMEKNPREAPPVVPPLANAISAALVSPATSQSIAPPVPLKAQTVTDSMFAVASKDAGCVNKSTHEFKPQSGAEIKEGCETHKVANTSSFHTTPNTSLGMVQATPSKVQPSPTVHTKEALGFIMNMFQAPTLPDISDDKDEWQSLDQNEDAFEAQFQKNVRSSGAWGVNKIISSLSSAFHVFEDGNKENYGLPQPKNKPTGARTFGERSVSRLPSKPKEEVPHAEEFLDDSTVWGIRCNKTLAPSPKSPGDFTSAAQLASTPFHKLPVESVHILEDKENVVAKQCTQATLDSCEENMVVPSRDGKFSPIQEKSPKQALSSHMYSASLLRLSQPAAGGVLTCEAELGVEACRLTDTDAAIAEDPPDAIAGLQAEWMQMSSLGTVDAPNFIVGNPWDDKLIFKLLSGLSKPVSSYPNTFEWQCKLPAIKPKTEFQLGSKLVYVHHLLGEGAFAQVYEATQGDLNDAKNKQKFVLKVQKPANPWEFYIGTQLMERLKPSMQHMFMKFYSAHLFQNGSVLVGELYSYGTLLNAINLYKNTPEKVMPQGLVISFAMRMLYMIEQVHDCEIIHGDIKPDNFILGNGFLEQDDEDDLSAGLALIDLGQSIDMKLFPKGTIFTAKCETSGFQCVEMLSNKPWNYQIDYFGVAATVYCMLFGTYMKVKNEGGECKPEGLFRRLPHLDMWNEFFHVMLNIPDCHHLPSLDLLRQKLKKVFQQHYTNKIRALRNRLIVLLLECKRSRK

What is called IC50 is the concentration at which inhibition is half-maximal. Lower therefore signals inhibition by little substance. Turning to `CCOc1cc(F)c(Cn2nc(-c3ncc(OC)c(Nc4ccncc4)n3)c(C)c2C2CC2)c(F)c1` [compound 11, 2-[5-Cyclopropyl-1-(4-ethoxy-2,6-difluorobenzyl)-4-methyl-1H-pyrazol-3-yl]-5-methoxy-N-(pyridine-4-yl)pyrimidin-4-amine], the IC50 is 560 nM.
For `CC(C)(C)n1nc(Cc2ccccc2O)c2c(N)ncnc21` [2OH-BNPP1] the value was 600 nM.
